# According to patent US9562035B2, “Benzamide derivative useful as FASN inhibitors for the treatment of cancer” (Janssen Pharmaceutica NV, priority 2013, dated 2017):
# Key:
# [1] = target: T1, hFASN enzyme (full length) (Homo sapiens, UniProt P49327); assay: Fatty Acid Synthase (FASN) Inhibition Scintillation Proximity Assay; format: biochemical; conditions: for IC50: mean where tested more than once, ~ = standard error of pIC50 larger than 0.5; for inhibition at 10 µM: read-out: FASN % Effect @1E−05M
# T1 construct: 10 μL hFASN enzyme (full length, 300 ng, purified in house); made in house
# T1 sequence (P49327 whole entry): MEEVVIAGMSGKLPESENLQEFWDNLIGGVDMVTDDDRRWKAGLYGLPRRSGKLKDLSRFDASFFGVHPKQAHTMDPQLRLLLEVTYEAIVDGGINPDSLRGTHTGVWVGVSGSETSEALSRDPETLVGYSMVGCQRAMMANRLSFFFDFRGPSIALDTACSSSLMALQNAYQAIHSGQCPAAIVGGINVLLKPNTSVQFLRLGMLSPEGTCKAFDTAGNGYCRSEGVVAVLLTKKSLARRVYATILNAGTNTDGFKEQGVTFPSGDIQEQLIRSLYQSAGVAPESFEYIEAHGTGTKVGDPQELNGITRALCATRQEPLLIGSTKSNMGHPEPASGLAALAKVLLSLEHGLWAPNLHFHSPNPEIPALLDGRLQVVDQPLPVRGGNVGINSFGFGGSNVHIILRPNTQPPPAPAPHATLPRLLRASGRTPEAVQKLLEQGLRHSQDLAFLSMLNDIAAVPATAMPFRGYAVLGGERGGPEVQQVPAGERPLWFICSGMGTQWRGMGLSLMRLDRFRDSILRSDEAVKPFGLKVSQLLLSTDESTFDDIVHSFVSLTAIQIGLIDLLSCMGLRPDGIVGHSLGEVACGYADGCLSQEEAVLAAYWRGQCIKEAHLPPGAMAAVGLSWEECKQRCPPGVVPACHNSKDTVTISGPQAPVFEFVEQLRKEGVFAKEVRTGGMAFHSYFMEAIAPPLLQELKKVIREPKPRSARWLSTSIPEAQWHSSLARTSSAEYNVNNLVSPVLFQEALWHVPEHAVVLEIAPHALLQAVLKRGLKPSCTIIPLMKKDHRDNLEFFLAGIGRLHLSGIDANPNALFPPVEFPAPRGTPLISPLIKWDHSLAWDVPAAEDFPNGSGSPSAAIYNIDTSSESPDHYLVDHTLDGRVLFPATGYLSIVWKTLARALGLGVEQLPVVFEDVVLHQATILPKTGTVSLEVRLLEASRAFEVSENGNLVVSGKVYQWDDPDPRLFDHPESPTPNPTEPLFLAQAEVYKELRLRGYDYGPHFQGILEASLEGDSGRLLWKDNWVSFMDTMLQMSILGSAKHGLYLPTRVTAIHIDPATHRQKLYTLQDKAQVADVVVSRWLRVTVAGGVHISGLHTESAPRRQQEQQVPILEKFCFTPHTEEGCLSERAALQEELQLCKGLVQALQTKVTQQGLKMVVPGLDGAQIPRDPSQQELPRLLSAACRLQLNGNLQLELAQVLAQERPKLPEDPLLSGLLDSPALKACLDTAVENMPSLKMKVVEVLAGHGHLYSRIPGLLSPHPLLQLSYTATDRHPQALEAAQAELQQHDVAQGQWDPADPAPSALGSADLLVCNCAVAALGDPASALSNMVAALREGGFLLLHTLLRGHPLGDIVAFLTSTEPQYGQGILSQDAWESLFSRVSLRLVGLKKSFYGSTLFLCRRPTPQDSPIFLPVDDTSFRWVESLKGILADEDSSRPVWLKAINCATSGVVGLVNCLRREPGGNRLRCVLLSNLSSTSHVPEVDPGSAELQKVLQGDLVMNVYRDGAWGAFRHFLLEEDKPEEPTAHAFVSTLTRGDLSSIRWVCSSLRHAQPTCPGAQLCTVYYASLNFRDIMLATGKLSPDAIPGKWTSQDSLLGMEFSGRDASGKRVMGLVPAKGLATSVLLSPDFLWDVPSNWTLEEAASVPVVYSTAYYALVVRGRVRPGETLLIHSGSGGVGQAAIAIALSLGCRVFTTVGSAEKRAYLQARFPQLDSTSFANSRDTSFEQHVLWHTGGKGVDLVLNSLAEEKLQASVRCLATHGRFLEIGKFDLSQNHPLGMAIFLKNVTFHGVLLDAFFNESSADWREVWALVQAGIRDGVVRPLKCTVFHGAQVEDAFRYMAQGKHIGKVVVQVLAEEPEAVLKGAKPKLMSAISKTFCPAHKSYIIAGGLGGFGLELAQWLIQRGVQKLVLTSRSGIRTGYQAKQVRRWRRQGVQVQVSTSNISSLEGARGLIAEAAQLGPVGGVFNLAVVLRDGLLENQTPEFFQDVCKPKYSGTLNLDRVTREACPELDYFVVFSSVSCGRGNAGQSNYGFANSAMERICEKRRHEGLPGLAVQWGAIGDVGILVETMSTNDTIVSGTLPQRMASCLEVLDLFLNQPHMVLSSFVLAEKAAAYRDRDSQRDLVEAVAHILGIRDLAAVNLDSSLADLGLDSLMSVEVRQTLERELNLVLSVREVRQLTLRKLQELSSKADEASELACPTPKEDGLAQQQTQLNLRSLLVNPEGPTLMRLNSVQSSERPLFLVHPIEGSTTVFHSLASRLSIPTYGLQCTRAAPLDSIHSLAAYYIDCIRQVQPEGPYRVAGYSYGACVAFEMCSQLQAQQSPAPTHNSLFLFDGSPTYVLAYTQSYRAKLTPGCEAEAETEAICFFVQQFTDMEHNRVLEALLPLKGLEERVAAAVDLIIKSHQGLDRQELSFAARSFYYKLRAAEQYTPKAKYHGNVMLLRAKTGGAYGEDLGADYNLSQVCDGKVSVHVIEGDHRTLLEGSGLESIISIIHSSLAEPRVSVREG
# Summary of the method: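 Eight compound concentrations (0.01–30 μM) tested in pH 7.5 phosphate buffer with DTT; human full-length enzyme converted [3H]-acetyl-CoA plus malonyl-CoA, with NADPH, over 60 min at room temperature. Hydrophobic [3H]-palmitate detected by bead proximity scintillation imaging; control-normalised data fitted for IC50/pIC50.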
# [2] = target: T2, FASN Keto-reductase Domain (Homo sapiens, UniProt P49327); assay: Fatty Acid Synthase Keto-Reductase Domain (FASN KR) Inhibition; format: biochemical; conditions: mean where tested more than once; read-out: FASN K-R Domain pIC50 (converted)
# T2 construct: 10 μL hFASN enzyme (full length, 300 ng, purified in house) and 360 μM NADPH; made in house
# T2 sequence (P49327 whole entry, the tested form may be a part): as the sequence (P49327 whole entry) above
# Summary of the method: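 Keto-reductase activity followed as NADPH consumption (A340 drop between 0 and 20 min, room temperature) using in-house full-length hFASN, 360 μM NADPH and ethyl acetoacetate substrate (180 mM stock), pH 7.5 phosphate buffer.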
# A2780 ovarian cells [3] = assay: A2780 Ovarian Cell Proliferation Assay in Lipid Reduced Medium, without Palmitate; format: cell-based; conditions: Homo sapiens, A2780; lipid reduced medium, without palmitate, 96 h, MTT; read-out: Proliferation A2780 w/o Palmitate pIC50 (converted)
# Summary of the method: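 A2780 cells were seeded in 10% FCS medium and switched next day to 10% lipid-reduced serum without palmitate. Compounds at 0.01–30 μM were added with 0.2% DMSO, 0.2% fatty-acid-free BSA and 0.25% ethanol final. After 96 h, MTT absorbance at 544 nm was normalized to plate controls, and IC50/pIC50 came from a 4-parameter logistic fit.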
# A2780 ovarian cells [4] = assay: A2780 Ovarian Cell Proliferation Assay in Lipid Reduced Medium, with Palmitate (control); format: cell-based; conditions: Homo sapiens, A2780; lipid reduced medium, 25 μM palmitate, 96 h, MTT; read-out: Proliferation A2780 with Palmitate pIC50 (converted)
# Summary of the method: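 Read-out was MTT absorbance at 544 nm after 96 h at 37 °C. Cells grown overnight in RPMI1640/10% FCS were moved to 10% lipid-reduced serum with compound plus palmitate (final 25 μM, 0.2% fatty-acid-free BSA, 0.2% DMSO). IC50 came from least-squares curve fitting, expressed as −log(IC50).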
SMILES,IC50 [1],inhibition at 10 µM [1],IC50 [2],IC50 (A2780 ovarian cells [3]),IC50 (A2780 ovarian cells [4])
"CCCN1CCC(C(=O)Nc2cc(C(=O)N3CCC(c4ccc(-c5cnn(C)c5)cc4)CC3)ccc2C)CC1 [Compound 181, N-(2-methyl-5-(4-(4-(1-methyl-1H-pyrazol-4-yl)phenyl)piperidine-1-carbonyl)phenyl)-1-propylpiperidine-4-carboxamide]",41.7 nM,108%,110 nM,32.4 nM,> 10000 nM
"Cc1ccc(C(=O)N2CCC(c3ccc(-c4cnn(C)c4)cc3)CC2)cc1NC(=O)c1ccccc1Cl [Compound 96, 2-chloro-N-(2-methyl-5-(4-(4-(1-methyl-1H-pyrazol-4-yl)phenyl)piperidine-1-carbonyl)phenyl)benzamide]",31.6 nM,103%,155 nM,145 nM,> 10000 nM
"Cc1ccc(C(=O)N2CC(c3ccc(-c4cccc5ncccc45)cc3)C2)cc1NC(=O)c1ccc(NC(C)C)nc1 [Compound 12, 6-(isopropylamino)-N-(2-methyl-5-(3-(4-(quinolin-5-yl)phenyl)azetidine-1-carbonyl)phenyl)nicotinamide]",38.9 nM,111%,22.9 nM,49 nM,2240 nM
"Cc1ccc(C(=O)N2CCC(c3ccc(-c4cnn(C)c4)cc3)CC2)cc1NC(=O)c1cnc(N(C)C(C)C)nc1 [Compound 144, 2-(isopropyl(methyl)amino)-N-(2-methyl-5-(4-(4-(1-methyl-1H-pyrazol-4-yl)phenyl)piperidine-1-carbonyl)phenyl)pyrimidine-5-carboxamide]",24 nM,106%,35.5 nM,~12.3 nM,7760 nM
"Cc1ccc(C(=O)N2CCC(c3ccc(-c4cnn(C)c4)cc3)CC2)cc1NC(=O)C1CN(C2CCC(C)C2)C1 (stereo not drawn) [Compound 193, N-(2-methyl-5-(4-(4-(1-methyl-1H-pyrazol-4-yl)phenyl)piperidine-1-carbonyl)phenyl)-1-(3-methylcyclopentyl)azetidine-3-carboxamide]",60.3 nM,109%,178 nM,148 nM,7080 nM
"CCc1ccc(C(=O)N2CCC(c3ccc(-c4cnn(C)c4)cc3)CC2)cc1NC(=O)c1ccc(NC(C)C)nc1 [Compound #256, N-(2-ethyl-5-(4-(4-(1-methyl-1H-pyrazol-4-yl)phenyl)piperidine-1-carbonyl)phenyl)-6-(isopropylamino)nicotinamide]",25.7 nM,116%,60.3 nM,8.91 nM,6310 nM
"Cc1ccc(C(=O)N2CCC(c3ccc4c(c3)NC(=O)CC4)CC2)cc1NC(=O)c1ccc(Cl)nc1 [Compound 23, 6-chloro-N-(2-methyl-5-(4-(2-oxo-1,2,3,4-tetrahydroquinolin-7-yl)piperidine-1-carbonyl)phenyl)nicotinamide]",589 nM,93%,1170 nM,1120 nM,~10000 nM
"Cc1ccc(C(=O)N2CCC(c3ccc(-c4cnn(C)c4)cc3)CC2)cc1NC(=O)c1cnc(NC(C)C)nc1 [Compound 146, 2-(isopropylamino)-N-(2-methyl-5-(4-(4-(1-methyl-1H-pyrazol-4-yl)phenyl)piperidine-1-carbonyl)phenyl)pyrimidine-5-carboxamide]",19.1 nM,110%,32.4 nM,~20.4 nM,> 10000 nM
"Cc1ccc(C(=O)N2CCC(c3ccc(-c4cnn(C)c4)cc3)CC2)cc1NC(=O)c1cnccc1Cl [Compound 114, 4-chloro-N-(2-methyl-5-(4-(4-(1-methyl-1H-pyrazol-4-yl)phenyl)piperidine-1-carbonyl)phenyl)nicotinamide]",316 nM,92%,631 nM,537 nM,> 10000 nM
"Cc1ccc(C(=O)N2CCC(c3ccc(-c4cnn(C)c4)cc3)CC2)cc1NC(=O)c1cnc(Cl)nc1 [Compound 136, 2-chloro-N-(2-methyl-5-(4-(4-(1-methyl-1H-pyrazol-4-yl)phenyl)piperidine-1-carbonyl)phenyl)pyrimidine-5-carboxamide]",30.9 nM,105%,69.2 nM,1230 nM,~5130 nM
"COc1ccccc1-c1ccc(C2CCN(C(=O)c3ccc(C)c(NC(=O)c4ccc(NC(C)C)nc4)c3)CC2)cc1 [Compound 200, 6-(isopropylamino)-N-(5-(4-(2′-methoxy-[1,1′-biphenyl]-4-yl)piperidine-1-carbonyl)-2-methylphenyl)nicotinamide]",646 nM,86%,646 nM,708 nM,4570 nM
"Cc1ccc(F)c(C(=O)Nc2cc(C(=O)N3CCC(c4ccc(-c5cnn(C)c5)cc4)CC3)ccc2C)c1 [Compound 127, 2-fluoro-5-methyl-N-(2-methyl-5-(4-(4-(1-methyl-1H-pyrazol-4-yl)phenyl)piperidine-1-carbonyl)phenyl)benzamide]",182 nM,98%,389 nM,562 nM,4470 nM
"CC(C)Nc1ccc(C(=O)Nc2cc(C(=O)N3CC(c4ccc(-c5ccc6cnccc6c5)cc4)C3)ccc2Cl)cn1 [Compound #75, N-(2-chloro-5-(3-(4-(isoquinolin-6-yl)phenyl)azetidine-1-carbonyl)phenyl)-6-(isopropylamino)nicotinamide]",53.7 nM,92%,55 nM,135 nM,> 15100 nM
"Cc1ccc(C(=O)N2CCC(c3ccc(-c4cnn(C)c4)cc3)CC2)cc1NC(=O)C1CCN(C(C)C)CC1 [Compound #182, 1-isopropyl-N-(2-methyl-5-(4-(4-(1-methyl-1H-pyrazol-4-yl)phenyl)piperidine-1-carbonyl)phenyl)piperidine-4-carboxamide]",27.5 nM,111%,112 nM,45.7 nM,> 10000 nM
"CC(C)Nc1ccc(C(=O)Nc2cc(C(=O)N3CCC(c4ccc(-c5cccnc5)cc4)CC3)ccc2Cl)cn1 [Compound 71, N-(2-chloro-5-(4-(4-(pyridin-3-yl)phenyl)piperidine-1-carbonyl)phenyl)-6-(isopropylamino)nicotinamide]",47.9 nM,101%,234 nM,447 nM,5250 nM
"Cc1ccc(C(=O)N2CC(c3ccc(-c4cnn(C)c4)cc3)C2)cc1NC(=O)c1ccc(N(C)C2CCN(C)CC2)nc1 [Compound 140, 6-(methyl(1-methylpiperidin-4-yl)amino)-N-(2-methyl-5-(3-(4-(1-methyl-1H-pyrazol-4-yl)phenyl)azetidine-1-carbonyl)phenyl)nicotinamide]",15.8 nM,114%,39.8 nM,~23.4 nM,7760 nM
"Cc1ccc(C(=O)N2CC(c3ccc(-c4ccnn4C)cc3)C2)cc1NC(=O)c1ccc2ccccc2n1 [Compound 55, N-(2-methyl-5-(3-(4-(1-methyl-1H-pyrazol-5-yl)phenyl)azetidine-1-carbonyl)phenyl)quinoline-2-carboxamide]",437 nM,86%,513 nM,~77.6 nM,~85.1 nM
"Cc1ccc(C(=O)N2CC(c3ccc(-c4ccncc4)cc3)C2)cc1NC(=O)c1ccc(NC(C)C)nc1 [Compound 31, 6-(isopropylamino)-N-(2-methyl-5-(3-(4-(pyridin-4-yl)phenyl)azetidine-1-carbonyl)phenyl)nicotinamide]",~17.8 nM,104%,52.5 nM,25.1 nM,1660 nM
